Among the data in patent US11236069B2, “KIF18A inhibitors” (AMGEN INC., priority 2018, dated 2022) are IC50 values, retold here.

What is called pIC50 is −log10 of the IC50, conventionally taken in molar units.

pIC50: −log10 of the molar value.

Recombinant human KIF18A (1-467 His-tagged) protein, sequence (Q8NI77 1-467): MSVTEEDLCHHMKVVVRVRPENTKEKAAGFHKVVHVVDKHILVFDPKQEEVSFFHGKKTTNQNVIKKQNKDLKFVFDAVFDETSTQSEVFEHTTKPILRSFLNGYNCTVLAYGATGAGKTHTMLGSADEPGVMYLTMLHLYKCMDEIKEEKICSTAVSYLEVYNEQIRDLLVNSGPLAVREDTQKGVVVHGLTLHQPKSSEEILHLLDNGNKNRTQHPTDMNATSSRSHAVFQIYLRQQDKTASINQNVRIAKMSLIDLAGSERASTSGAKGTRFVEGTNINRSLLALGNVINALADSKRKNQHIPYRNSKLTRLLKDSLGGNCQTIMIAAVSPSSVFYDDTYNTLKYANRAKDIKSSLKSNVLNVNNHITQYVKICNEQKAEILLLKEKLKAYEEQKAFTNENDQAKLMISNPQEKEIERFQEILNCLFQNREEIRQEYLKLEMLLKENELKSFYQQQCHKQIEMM
Recombinant human KIF18A (1-467 His-tagged) protein, sequence (P02550 whole entry partner): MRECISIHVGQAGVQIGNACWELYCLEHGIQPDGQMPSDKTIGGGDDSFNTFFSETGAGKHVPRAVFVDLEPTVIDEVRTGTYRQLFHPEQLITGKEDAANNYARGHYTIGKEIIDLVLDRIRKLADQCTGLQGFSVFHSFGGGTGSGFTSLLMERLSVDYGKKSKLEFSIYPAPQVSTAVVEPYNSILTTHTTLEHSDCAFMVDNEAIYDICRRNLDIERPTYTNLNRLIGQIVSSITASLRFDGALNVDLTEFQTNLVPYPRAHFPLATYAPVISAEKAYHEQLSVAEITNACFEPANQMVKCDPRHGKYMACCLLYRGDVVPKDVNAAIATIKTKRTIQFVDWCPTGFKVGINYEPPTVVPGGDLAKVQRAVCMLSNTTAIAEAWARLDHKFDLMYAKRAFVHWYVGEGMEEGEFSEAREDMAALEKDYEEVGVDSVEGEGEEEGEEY
Recombinant human KIF18A (1-467 His-tagged) protein, sequence (P02554 whole entry partner): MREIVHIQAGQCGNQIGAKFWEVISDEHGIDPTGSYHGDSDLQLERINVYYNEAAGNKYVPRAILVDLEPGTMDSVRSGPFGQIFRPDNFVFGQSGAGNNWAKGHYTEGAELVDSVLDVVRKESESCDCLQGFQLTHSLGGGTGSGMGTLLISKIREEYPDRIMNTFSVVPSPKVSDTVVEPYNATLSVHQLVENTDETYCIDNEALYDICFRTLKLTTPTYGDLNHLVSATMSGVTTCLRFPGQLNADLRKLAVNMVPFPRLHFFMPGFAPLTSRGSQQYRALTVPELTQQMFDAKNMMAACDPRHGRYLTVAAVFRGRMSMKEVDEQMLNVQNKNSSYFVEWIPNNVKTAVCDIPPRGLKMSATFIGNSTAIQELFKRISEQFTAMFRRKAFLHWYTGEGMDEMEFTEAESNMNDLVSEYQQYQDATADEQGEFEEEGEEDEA

One test has as its target Recombinant human KIF18A (1-467 His-tagged) protein (Homo sapiens (Human), UniProt Q8NI77). In words: KIF18A Enzyme Assay: microtubule-stimulated ATPase activity (ADP-Glo). The settings on record: read-out: KIF18A ATPase IC50. On the technique in general: ADP-Glo turns the ADP formed in a reaction into a luminescent signal.
From the text: KIF18A Enzyme Assay: Microtubule-stimulated ATPase activity assay is used to measure KIF18A enzyme activity after treatment with compound. Compounds were 2-fold serially diluted in DMSO (Sigma Inc) over 22-point concentration range. […] The assay measures ADP formed from the ATPase reaction.
For the compound `Cc1cc(NC(=O)c2ccc(NS(=O)(=O)[C@H](C)CO)cc2N2CCC3(CC2)CC3)nc(N2CCC(F)(F)CC2)n1` [Example 5-1, (R)-N-(2-(4,4-Difluoropiperidin-1-yl)-6-methylpyrimidin-4-yl)-4-((2-hydroxy-1-methylethyl)sulfonamido)-2-(6-azaspiro[2.5]octan-6-yl)benzamide], the pIC50 was 7.21.

The test is the same for the next values; noted with them: read-out: KIF18A ATPase IC50; 30 nM KIF18A, 30 μg/mL pig microtubules, ATP at Km 75 μM, ADP-Glo luminescence.
`Cc1cc(NC(=O)c2ccc(NS(=O)(=O)C(C)(C)C)cc2N2CCC3(CC2)CC3)nc(N2CC(F)(F)C2)n1` [Example 11-83, N-(2-(3,3-Difluoroazetidin-1-yl)-6-methylpyrimidin-4-yl)-4-((1,1-dimethylethyl)sulfonamido)-2-(6-azaspiro[2.5]octan-6-yl)benzamide]: the negative-log IC50 (pIC50) was 7.01. For `Cc1cc(NC(=O)c2ccc(NS(=O)(=O)CCO)cc2N2CCC3(CC2)CC3)nc(C2CC2)n1` [Example 11-3, N-(2-Cyclopropyl-6-methylpyrimidin-4-yl)-4-((2-hydroxyethyl)sulfonamido)-2-(6-azaspiro[2.5]octan-6-yl)benzamide], the pIC50 was 7.31. Regarding `Cc1cc(NC(=O)c2ccc(NS(C)(=O)=O)cc2N2CCC3(CC2)CC3)nc(N2CCC(F)CC2)n1` [Example 11-81, N-(2-(4-Fluoropiperidin-1-yl)-6-methylpyrimidin-4-yl)-4-(methylsulfonamido)-2-(6-azaspiro[2.5]octan-6-yl)benzamide], the pIC50 was 7.22.

For the compound `Cc1cc(NC(=O)c2ccc(NS(=O)(=O)C3(C)CC3)cc2N2CCC3(CC2)CC3)nc(N2CCC(F)(F)CC2)n1` [Example 2-8, N-(2-(4,4-Difluoropiperidin-1-yl)-6-methylpyrimidin-4-yl)-4-((1-methylcyclopropan)-1-sulfonamido)-2-(6-azaspiro[2.5]octan-6-yl)benzamide], the negative-log IC50 (pIC50) is 6.15. On to `Cc1cc(NC(=O)c2ccc(NS(=O)(=O)C(C)C)cc2N2CCC3(CC2)CC3)nc(N2CCC(F)(F)CC2)n1` [Example 6-22, N-(2-(4,4-Difluoropiperidin-1-yl)-6-methylpyrimidin-4-yl)-4-((1-methylethyl)sulfonamido)-2-(6-azaspiro[2.5]octan-6-yl)benzamide], for which the pIC50 was 6.82. Turning to `Cc1cc(NC(=O)c2ccc(NS(=O)(=O)C[C@@H](C)O)cc2N2CCC3(CC2)CC3)nc(N2CCC(F)(F)CC2)n1` [Example 6-32-1, (R)-N-(2-(4,4-Difluoropiperidin-1-yl)-6-methylpyrimidin-4-yl)-4-((2-hydroxypropyl)sulfonamido)-2-(6-azaspiro[2.5]octan-6-yl)benzamide], the negative-log IC50 (pIC50) is 6.95. As for `Cc1cc(NC(=O)c2ccc(NS(=O)(=O)CCO)cc2N2CCC3(CC2)CC3)nc(N2CC[C@@](C)(F)C2)n1` [Example 11-27, (R)-N-(2-(3-Fluoro-3-methylpyrrolidin-1-yl)-6-methylpyrimidin-4-yl)-4-((2-hydroxyethyl)sulfonamido)-2-(6-azaspiro[2.5]octan-6-yl)benzamide], the negative-log IC50 (pIC50) is 7.70. Still for that read-out and setting: then `Cc1cc(NC(=O)c2ccc(NS(=O)(=O)CCO)cc2N2CCC3(CC2)CC3)nc(OC2CCC2)n1` [Example 11-4, N-(2-Cyclobutoxy-6-methylpyrimidin-4-yl)-4-((2-hydroxyethyl)sulfonamido)-2-(6-azaspiro[2.5]octan-6-yl)benzamide], with 7.74.

For the compound `Cc1cc(NC(=O)c2ccc(NS(=O)(=O)CCCO)cc2N2CCC3(CC2)CC3)nc(N2CCO[C@H](C)C2)n1` [Example 6-8, (R)-4-((3-Hydroxypropyl)sulfonamido)-N-(6-methyl-2-(2-methylmorpholino)pyrimidin-4-yl)-2-(6-azaspiro[2.5]octan-6-yl)benzamide], the pIC50 is 6.97. Take `Cc1cc(NC(=O)c2ccc([S@@](=N)(=O)C3CC3)cc2N2CCC3(CC2)CC3)nc(N2CCO[C@H](C)C2)n1` [Example 19-8, 2-(6-Azaspiro[2.5]octan-6-yl)-4-(R-cyclopropylsulfonimidoyl)-N-(6-methy-2-((2R)-2-methyl-4-moprpholinyl)-4-pyrimidinyl)benzamide]: the negative-log IC50 (pIC50) is 7.11. Consider `Cc1cc(NC(=O)c2ccc(NS(=O)(=O)CCO)cc2N2CCC3(CC2)CC3)nc(N2[C@H](C)COC[C@H]2C)n1` [Example 11-50, N-(2-((3R,5R)-3,5-Dimethylmorpholino)-6-methylpyrimidin-4-yl)-4-((2-hydroxyethyl)sulfonamido)-2-(6-azaspiro[2.5]octan-6-yl)benzamide], for which the negative logarithm of the IC50 (pIC50) was 6.73. As for `Cc1cc(NC(=O)c2ccc([S@@](=N)(=O)C3CC3)cc2N2CCC3(CC2)CC3)nc(N2CCC(F)(F)CC2)n1` (single isomer, unassigned) [Example 18-2, 2-(6-Azaspiro[2.5]octan-6-yl)-4-(S-cyclopropylsulfonimidoyl)-N-(2-(4,4-difluoro-1-piperidinyl)-6-methyl-4-pyrimidinyl)benzamide], the negative-log IC50 (pIC50) was 7.24. Take `Cc1cc(NC(=O)c2ccc(NS(=O)(=O)C3CC3)cc2N2CCC3(CC2)CC3)nc(N2CC(F)(F)C2)n1` [Example 11-22, 4-(Cyclopropanesulfonamido)-N-(2-(3,3-difluoroazetidin-1-yl)-6-methylpyrimidin-4-yl)-2-(6-azaspiro[2.5]octan-6-yl)benzamide]: the negative-log IC50 (pIC50) is 6.10.

For `Cc1cc(NC(=O)c2ccc(NS(=O)(=O)CCO)cc2N2CCC3(CC2)CC3)cc(N2CCO[C@H](C)C2)n1` [Example 11-66], the pIC50 is 6.83. The same measure, in the same setting: then `Cc1cc(NC(=O)c2c(F)cc(NS(=O)(=O)CCO)cc2N2CCC3(CC2)CC3)nc(N2CCC(F)(F)CC2)n1` [Example 11-58, N-(2-(4,4-Difluoropiperidin-1-yl)-6-methylpyrimidin-4-yl)-2-fluoro-4-((2-hydroxyethyl)sulfonamido)-6-(6-azaspiro[2.5]octan-6-yl)benzamide], with 7.15. On the same count and under the same terms, then `Cc1cc(NC(=O)c2ccc(S(=O)(=O)NCC(C)(C)O)cc2N2CCC3(CC2)CC3)nc(N2CCC(F)(F)CC2)n1` [Example 17-8, N-(2-(4,4-Difluoropiperidin-1-yl)-6-methylpyrimidin-4-yl)-4-(N-(2-hydroxy-2-methylpropyl)sulfamoyl)-2-(6-azaspiro[2.5]octan-6-yl)benzamide], with 6.54. In the case of `Cc1cc(NC(=O)c2ccc(NS(=O)(=O)CCO)cc2N2CCC3(CC2)CC3)nc(N2CCC(O)CC2)n1` [Example 11-37, 4-((2-Hydroxyethyl)sulfonamido)-N-(2-(4-hydroxypiperidin-1-yl)-6-methylpyrimidin-4-yl)-2-(6-azaspiro[2.5]octan-6-yl)benzamide], the negative-log IC50 (pIC50) is 6.84.

With `Cc1cc(NC(=O)c2ccc(NS(=O)(=O)CF)cc2N2CCC3(CC2)CC3)nc(N2CCO[C@H](C)C2)n1` [Example 6-3, (R)-4-((Fluoromethyl)sulfonamido)-N-(6-methyl-2-(2-methylmorpholino)pyrimidin-4-yl)-2-(6-azaspiro[2.5]octan-6-yl)benzamide], the pIC50 is 7.10. Turning to `Cc1cc(NC(=O)c2ccc(NS(=O)(=O)CCO)cc2N2CCC3(CC2)CC3)nc(O[C@@H]2CCOC2)n1` [Example 11-80, (R)-4-((2-Hydroxyethyl)sulfonamido)-N-(6-methyl-2-((tetrahydrofuran-3-yl)oxy)pyrimidin-4-yl)-2-(6-azaspiro[2.5]octan-6-yl)benzamide], the pIC50 was 6.93. For the compound `Cc1cc(NC(=O)c2ccc(NS(=O)(=O)CCO)cc2N2CCC3(CC2)CC3)nc(N2CCO[C@H](C)C2)n1` [Example 3, (R)-4-((2-Hydroxyethyl)sulfonamido)-N-(6-methyl-2-(2-methylmorpholino)pyrimidin-4-yl)-2-(6-azaspiro[2.5]octan-6-yl)benzamide], the pIC50 is 7.24. Same read-out and setting: the result for `Cc1cc(NC(=O)c2ccc(S(=O)(=O)NC3(C)COC3)cc2N2CCC3(CC2)CC3)nc(N2CCC(F)(F)CC2)n1` [Example 2-5, N-(2-(4,4-Difluoropiperidin-1-yl)-6-methylpyrimidin-4-yl)-4-(N-(3-methyloxetan-3-yl)sulfamoyl)-2-(6-azaspiro[2.5]octan-6-yl)benzamide] reads 6.99; that for `Cc1cc(NC(=O)c2ccc([S@](=N)(=O)C3CC3)cc2N2CCC3(CC2)CC3)nc(N2CCO[C@H](C)C2)n1` [Example 19-7, 2-(6-Azaspiro[2.5]octan-6-yl)-4-(S-cyclopropylsulfonimidoyl)-N-(6-methy-2-((2R)-2-methyl-4-moprpholinyl)-4-pyrimidinyl)benzamide], 6.71.

`Cc1cc(NC(=O)c2ccc(NS(=O)(=O)[C@H]3CCOC3)cc2N2CCC3(CC2)CC3)nc(N2CC(F)(F)C2)n1` [Example 11-70, (S)-N-(2-(3,3-Difluoroazetidin-1-yl)-6-methylpyrimidin-4-yl)-2-(6-azaspiro[2.5]octan-6-yl)-4-((tetrahydrofuran)-3-sulfonamido)benzamide]: the pIC50 was 7.14. As to `Cc1cc(NC(=O)c2ccc(NS(=O)(=O)CCO)cc2N2CCC3(CC2)CC3)nc(N2CC(C#N)C2)n1` [Example 11-13, N-(2-(3-Cyanoazetidin-1-yl)-6-methylpyrimidin-4-yl)-4-((2-hydroxyethyl)sulfonamido)-2-(6-azaspiro[2.5]octan-6-yl)benzamide], the negative logarithm of the IC50 (pIC50) is 7.17. Turning to `Cc1cc(NC(=O)c2ccc(S(=O)(=O)NC3(C)COC3)cc2N2CCC3(CC2)CC3)nc(C(C)(C)O)n1` [Example 2-1, N-(2-(2-Hydroxypropan-2-yl)-6-methylpyrimidin-4-yl)-4-(N-(3-methyloxetan-3-yl)sulfamoyl)-2-(6-azaspiro[2.5]octan-6-yl)benzamide], the negative-log IC50 (pIC50) is 7.19.

With `CCS(=O)(=O)Nc1ccc(C(=O)Nc2cc(C)nc(N3CCC(F)(F)CC3)n2)c(N2CCC3(CC2)CC3)c1` [Example 6-7, N-(2-(4,4-Difluoropiperidin-1-yl)-6-methylpyrimidin-4-yl)-4-(ethylsulfonamido)-2-(6-azaspiro[2.5]octan-6-yl)benzamide], the negative logarithm of the IC50 (pIC50) was 6.91.

`C[C@@H]1CN(c2cc(NC(=O)c3ccc(NS(=O)(=O)CCO)cc3N3CCC4(CC3)CC4)ccn2)CCO1` [Example 11-65]: the negative logarithm of the IC50 (pIC50) is 6.82.
